In this assay the target is T1, human TRPM8 (Homo sapiens, UniProt Q7Z2W7).
T1 construct: expressed in transfected cells; host or cells: Chinese hamster ovary (CHO) cells, T-REx tetracycline-inducible expression system (Invitrogen); co-transfected with pcDNA3.1 aequorin
The experiment in a line: Luminescence readout assay for measuring intracellular calcium (aequorin, CHO cells expressing human TRPM8; icilin, L-menthol or cold activation). The class given is cell-based. The method, boiled down: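 Activation was by 1 μM icilin, 100 μM L-menthol (test compound 2.5 min ahead) or cold buffer below 10° C (compound 1 min ahead). Calcium rise measured as aequorin luminescence in CHO cells with tetracycline-inducible human TRPM8.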
A general note: Calcium flux is commonly read through the fluorescence of an indicator in the cells.

[1] abbreviates: CHO cells expressing human TRPM8, icilin activation (1 μM), aequorin luminescence, read-out: hTRPM8 IC50.

Like-named read-outs stand apart in the source and are kept apart here.

Drawing on US20150031668A1, “CHROMAN DERIVATIVES AS TRPM8 INHIBITORS” (AMGEN INC., priority 2013, published 2015), this text covers IC50 for 32 molecules.

T1 sequence (Q7Z2W7 whole entry): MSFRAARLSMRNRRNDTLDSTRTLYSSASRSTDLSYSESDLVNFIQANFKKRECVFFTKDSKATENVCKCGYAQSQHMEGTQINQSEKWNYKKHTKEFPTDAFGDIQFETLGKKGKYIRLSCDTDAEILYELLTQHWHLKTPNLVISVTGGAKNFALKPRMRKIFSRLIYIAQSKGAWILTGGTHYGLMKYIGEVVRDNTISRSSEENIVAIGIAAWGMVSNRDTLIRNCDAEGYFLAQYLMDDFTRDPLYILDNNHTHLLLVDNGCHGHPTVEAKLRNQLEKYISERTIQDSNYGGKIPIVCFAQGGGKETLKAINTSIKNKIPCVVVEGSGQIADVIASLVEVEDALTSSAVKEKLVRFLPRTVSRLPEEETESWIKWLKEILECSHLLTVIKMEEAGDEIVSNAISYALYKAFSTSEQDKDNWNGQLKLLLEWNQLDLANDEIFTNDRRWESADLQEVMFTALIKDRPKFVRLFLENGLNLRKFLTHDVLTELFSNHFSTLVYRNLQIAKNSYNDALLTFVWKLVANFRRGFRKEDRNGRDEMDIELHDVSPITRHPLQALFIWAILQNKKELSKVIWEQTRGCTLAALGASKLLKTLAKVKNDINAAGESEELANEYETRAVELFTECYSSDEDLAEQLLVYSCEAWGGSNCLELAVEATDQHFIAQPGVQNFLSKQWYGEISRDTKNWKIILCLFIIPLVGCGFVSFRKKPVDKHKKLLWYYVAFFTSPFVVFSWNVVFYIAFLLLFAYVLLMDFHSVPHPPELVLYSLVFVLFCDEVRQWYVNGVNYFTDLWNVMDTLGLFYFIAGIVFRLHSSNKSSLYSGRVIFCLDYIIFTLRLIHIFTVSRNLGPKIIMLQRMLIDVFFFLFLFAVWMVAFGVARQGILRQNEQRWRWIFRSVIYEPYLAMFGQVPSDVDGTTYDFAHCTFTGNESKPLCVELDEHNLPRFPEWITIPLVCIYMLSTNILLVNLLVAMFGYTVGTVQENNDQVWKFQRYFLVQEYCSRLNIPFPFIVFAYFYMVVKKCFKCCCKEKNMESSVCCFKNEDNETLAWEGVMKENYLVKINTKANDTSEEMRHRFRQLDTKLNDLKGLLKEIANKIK

By IC50 is commonly meant the concentration at which inhibition is half-maximal. On to `COC(=O)C1CCN(C(=O)N[C@]2(c3ccc(OC(F)(F)F)c(F)c3)CCOc3cccnc32)CC1` [Example 99, (S)-methyl 1-((4-(3-fluoro-4-(trifluoromethoxy)phenyl)-3,4-dihydro-2H-pyrano[3,2-b]pyridin-4-yl)carbamoyl)piperidine-4-carboxylate], for which the IC50 under setting [1] is 106 nM.

In the case of `O=C(N[C@]1(c2ccc(OC(F)(F)F)c(F)c2)CCOc2cccnc21)N1CCC(F)(F)CC1` [Example 100], the IC50 under setting [1] is 187 nM.

Regarding `O=C(N[C@]1(c2ccc(OC(F)(F)F)c(F)c2)CCOc2cccnc21)N1CCOCC1` [Example 101, (S)-N-(4-(3-fluoro-4-(trifluoromethoxy)phenyl)-3,4-dihydro-2H-pyrano[3,2-b]pyridin-4-yl)morpholine-4-carboxamide], the IC50 under setting [1] is 760 nM.

For the molecule `O=C(N[C@]1(c2ccc(OC(F)(F)F)c(F)c2)CCOc2cccnc21)N1CCC(O)CC1` [Example 102, (S)-N-(4-(3-fluoro-4-(trifluoromethoxy)phenyl)-3,4-dihydro-2H-pyrano[3,2-b]pyridin-4-yl)-4-hydroxypiperidine-1-carboxamide], the IC50 under setting [1] was determined as 218 nM.

For the molecule `O=C1CCN(C(=O)N[C@]2(c3ccc(OC(F)(F)F)c(F)c3)CCOc3cccnc32)CC1` [Example 103, (S)-N-(4-(3-fluoro-4-(trifluoromethoxy)phenyl)-3,4-dihydro-2H-pyrano[3,2-b]pyridin-4-yl)-4-oxopiperidine-1-carboxamide], the IC50 was determined as 278 nM.

On to `O=C(N[C@]1(c2ccc(OC(F)(F)F)c(F)c2)CCOc2cccnc21)N1CCCC1` [Example 104, (S)-N-(4-(3-fluoro-4-(trifluoromethoxy)phenyl)-3,4-dihydro-2H-pyrano[3,2-b]pyridin-4-yl)pyrrolidine-1-carboxamide], for which the IC50 under setting [1] came out at 85 nM.

Take `O=C(N[C@]1(c2ccc(OC(F)(F)F)c(F)c2)CCOc2cccnc21)N1CCC1` [Example 105, (S)-N-(4-(3-fluoro-4-(trifluoromethoxy)phenyl)-3,4-dihydro-2H-pyrano[3,2-b]pyridin-4-yl)azetidine-1-carboxamide]: the IC50 under setting [1] came to 404 nM.

In the case of `O=C(Nc1ccccc1C(=O)O)N[C@]1(c2ccc(OC(F)(F)F)c(F)c2)CCOc2cccnc21` [Example 106, (S)-2-(3-(4-(3-fluoro-4-(trifluoromethoxy)phenyl)-3,4-dihydro-2H-pyrano[3,2-b]pyridin-4-yl)ureido)benzoic acid], under setting [1], the IC50 amounted to 39 nM.

Take `O=C(Nc1cccc(C(=O)O)c1)N[C@]1(c2ccc(OC(F)(F)F)c(F)c2)CCOc2cccnc21` [Example 107, (S)-3-(3-(4-(3-fluoro-4-(trifluoromethoxy)phenyl)-3,4-dihydro-2H-pyrano[3,2-b]pyridin-4-yl)ureido)benzoic acid]: the IC50 under setting [1] was 150 nM.

For the molecule `O=C(Nc1ccc(C(=O)O)cc1)N[C@]1(c2ccc(OC(F)(F)F)c(F)c2)CCOc2cccnc21` [Example 108, (S)-4-(3-(4-(3-fluoro-4-(trifluoromethoxy)phenyl)-3,4-dihydro-2H-pyrano[3,2-b]pyridin-4-yl)ureido)benzoic acid], under setting [1], the IC50 is 386 nM.

Consider `O=C(Nc1ccc(-c2noc(=O)[nH]2)nc1)N[C@]1(c2ccc(OC(F)(F)F)c(F)c2)CCOc2cccnc21` [Example 109, (S)-1-(4-(3-fluoro-4-(trifluoromethoxy)phenyl)-3,4-dihydro-2H-pyrano[3,2-b]pyridin-4-yl)-3-(6-(5-oxo-4,5-dihydro-1,2,4-oxadiazol-3-yl)pyridin-3-yl)urea], for which the IC50 under setting [1] was determined as 3060 nM.

`O=C(O)C1CCN(C(=O)N[C@]2(c3ccc(OC(F)(F)F)c(F)c3)CCOc3cccnc32)CC1` [Example 110]: the IC50 under setting [1] is 585 nM.

Regarding `N#CCc1ccc([C@@]2(NC(=O)c3ccc(F)cc3)CCOc3cccnc32)cc1` [Example 111, (S)—N-(4-(4-(cyanomethyl)phenyl)-3,4-dihydro-2H-pyrano[3,2-b]pyridin-4-yl)-4-fluorobenzamide], the 50% inhibitory concentration (IC50) under setting [1] was 1520 nM.

Turning to `O=C(N[C@]1(c2ccc(-c3ccccn3)cc2)CCOc2cccnc21)c1ccc(F)cc1` [Example 112, (S)-4-fluoro-N-(4-(4-(pyridin-2-yl)phenyl)-3,4-dihydro-2H-pyrano[3,2-b]pyridin-4-yl)benzamide], the IC50 under setting [1] came out at 233 nM.

Regarding `O=C(N[C@]1(c2ccc(-c3ccccc3)cc2)CCOc2cccnc21)c1ccc(F)cc1` [Example 113, (S)—N-(4-([1,1′-biphenyl]-4-yl)-3,4-dihydro-2H-pyrano[3,2-b]pyridin-4-yl)-4-fluorobenzamide], the IC50 under setting [1] is 53 nM.

Turning to `O=C(N[C@]1(c2ccc(-c3ccc(F)cc3)cc2)CCOc2cccnc21)c1ccc(F)cc1` [Example 114, (S)-4-fluoro-N-(4-(4′-fluoro-[1,1′-biphenyl]-4-yl)-3,4-dihydro-2H-pyrano[3,2-b]pyridin-4-yl)benzamide], the IC50 under setting [1] came out at 50 nM.

As to `O=C(N[C@]1(c2ccc(-c3cccnc3)cc2)CCOc2cccnc21)c1ccc(F)cc1` [Example 115, (S)-4-fluoro-N-(4-(4-(pyridin-3-yl)phenyl)-3,4-dihydro-2H-pyrano[3,2-b]pyridin-4-yl)benzamide], the 50% inhibitory concentration (IC50) under setting [1] stood at 341 nM.

As to `O=C(N[C@]1(c2ccc(-c3ccncc3)cc2)CCOc2cccnc21)c1ccc(F)cc1` [Example 116, (S)-4-fluoro-N-(4-(4-(pyridin-4-yl)phenyl)-3,4-dihydro-2H-pyrano[3,2-b]pyridin-4-yl)benzamide], the IC50 under setting [1] stood at 284 nM.

For the molecule `CCOc1cnc(-c2ccc([C@@]3(NC(=O)c4ccc(F)cc4)CCOc4cccnc43)cc2)cn1` [Example 117, (S)-N-(4-(4-(5-ethoxypyrazin-2-yl)phenyl)-3,4-dihydro-2H-pyrano[3,2-b]pyridin-4-yl)-4-fluorobenzamide], under setting [1], the IC50 stood at 73.7 nM.

As for `O=C(N[C@]1(c2ccc(-c3cccc(CO)c3)cc2)CCOc2cccnc21)c1ccc(F)cc1` [Example 118, (S)-4-fluoro-N-(4-(3′-(hydroxymethyl)-[1,1′-biphenyl]-4-yl)-3,4-dihydro-2H-pyrano[3,2-b]pyridin-4-yl)benzamide], under setting [1], the IC50 was found to be 2170 nM.

On to `CS(=O)(=O)c1ccc(-c2ccc([C@@]3(NC(=O)c4ccc(F)cc4)CCOc4cccnc43)cc2)cc1` [Example 119, (S)-4-fluoro-N-(4-(4′-(methylsulfonyl)-[1,1′-biphenyl]-4-yl)-3,4-dihydro-2H-pyrano[3,2-b]pyridin-4-yl)benzamide], for which the IC50 under setting [1] came out at 879 nM.

`O=C(N[C@]1(c2ccc(-c3ccccc3O)cc2)CCOc2cccnc21)c1ccc(F)cc1` [Example 120, (S)-4-fluoro-N-(4-(2′-hydroxy-[1,1′-biphenyl]-4-yl)-3,4-dihydro-2H-pyrano[3,2-b]pyridin-4-yl)benzamide]: the IC50 under setting [1] is 524 nM.

Regarding `CC(=O)Nc1ccc(-c2ccc([C@@]3(NC(=O)c4ccc(F)cc4)CCOc4cccnc43)cc2)cc1` [Example 121, (S)-N-(4-(4′-acetamido-[1,1′-biphenyl]-4-yl)-3,4-dihydro-2H-pyrano[3,2-b]pyridin-4-yl)-4-fluorobenzamide], the IC50 under setting [1] amounted to 1250 nM.

Turning to `O=C(N[C@]1(c2ccc(-c3ccc(F)c(CO)c3)cc2)CCOc2cccnc21)c1ccc(F)cc1` [Example 122, (S)-4-fluoro-N-(4-(4′-fluoro-3′-(hydroxymethyl)-[1,1-biphenyl]-4-yl)-3,4-dihydro-2H-pyrano[3,2-b]pyridin-4-yl)benzamide], the IC50 under setting [1] stood at 1520 nM.

For `NC(=O)c1cc(-c2ccc([C@@]3(NC(=O)c4ccc(F)cc4)CCOc4cccnc43)cc2)ccc1Cl` [Example 123, (S)-4-chloro-4′-(4-(4-fluorobenzamido)-3,4-dihydro-2H-pyrano[3,2-b]pyridin-4-yl)-[1,1′-biphenyl]-3-carboxamide], the IC50 under setting [1] amounted to 3560 nM.

Take `O=C(N[C@]1(c2ccc(-c3cncnc3)cc2)CCOc2cccnc21)c1ccc(F)cc1` [Example 124, (S)-4-fluoro-N-(4-(4-(pyrimidin-5-yl)phenyl)-3,4-dihydro-2H-pyrano[3,2-b]pyridin-4-yl)benzamide]: the IC50 under setting [1] was determined as 1410 nM.

In the case of `Cc1noc(C)c1-c1ccc([C@@]2(NC(=O)c3ccc(F)cc3)CCOc3cccnc32)cc1` [Example 125, (S)-N-(4-(4-(3,5-dimethylisoxazol-4-yl)phenyl)-3,4-dihydro-2H-pyrano[3,2-b]pyridin-4-yl)-4-fluorobenzamide], under setting [1], the IC50 turned out to be 429 nM.

As for `Nc1cccc(-c2ccc([C@@]3(NC(=O)c4ccc(F)cc4)CCOc4cccnc43)cc2)c1` [Example 126, (S)-N-(4-(3′-amino-[1,1′-biphenyl]-4-yl)-3,4-dihydro-2H-pyrano[3,2-b]pyridin-4-yl)-4-fluorobenzamide], the IC50 under setting [1] is 908 nM.

For `COc1ncc(-c2ccc([C@@]3(NC(=O)c4ccc(F)cc4)CCOc4cccnc43)cc2)cn1` [Example 127, (S)-4-fluoro-N-(4-(4-(2-methoxypyrimidin-5-yl)phenyl)-3,4-dihydro-2H-pyrano[3,2-b]pyridin-4-yl)benzamide], under setting [1], the IC50 came to 336 nM.

Consider `O=C(N[C@]1(c2ccc(-c3ccccc3CO)cc2)CCOc2cccnc21)c1ccc(F)cc1` [Example 128, (S)-4-fluoro-N-(4-(2′-(hydroxymethyl)-[1,1′-biphenyl]-4-yl)-3,4-dihydro-2H-pyrano[3,2-b]pyridin-4-yl)benzamide], for which, under setting [1], the IC50 is 501 nM.

Regarding `CN(C)C(=O)c1cccc(-c2ccc([C@@]3(NC(=O)c4ccc(F)cc4)CCOc4cccnc43)cc2)c1` [Example 129, (S)-4′-(4-(4-fluorobenzamido)-3,4-dihydro-2H-pyrano[3,2-b]pyridin-4-yl)-N,N-dimethyl-[1,1′-biphenyl]-3-carboxamide], the IC50 under setting [1] was found to be 2600 nM.

`COc1ccncc1-c1ccc([C@@]2(NC(=O)c3ccc(F)cc3)CCOc3cccnc32)cc1` [Example 130, (S)-4-fluoro-N-(4-(4-(4-methoxypyridin-3-yl)phenyl)-3,4-dihydro-2H-pyrano[3,2-b]pyridin-4-yl)benzamide]: the IC50 under setting [1] came out at 1000 nM.
